These results are taken from ChEMBL document CHEMBL1201862, “PubChem BioAssay data set” (2004).

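How tested: cells in 96-well plates exposed to compound for 48 hours at five concentrations. GI50 = concentration required for 50% inhibition of growth.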 The source made the active and inactive calls. Cut-off read from the data, not from the text of the source: active = GI50 up to about 1.1 µM and inactive = higher. A value given as a limit tells only on which side of the number the result lay.

Among the test systems are A498; DMS-114; DMS-273; HOP-62; KM12; LOX IMVI; MOLT-4; Malme-3M; OVCAR-4; OVCAR-8; SF-539; SK-OV-3; SW-620; UACC-257; TK-10; SR; DU-145; Hs-578T; PC-3; T47D.
Holding throughout (assay): NCI anticancer screen, dose series, 48 h

Take `CC1=C(O)C(=O)[C@@H]2O[C@@H]2C1=O`: the GI50 with A498 is 7.13 µM (inactive); in the assay on DMS-114, 10.3 µM (inactive); in the assay on DMS-273 it was 22.8 µM (inactive); in the assay on HOP-62 it was 35.3 µM (inactive); in the assay on KM12 it was 14.1 µM (inactive); with LOX IMVI, 12.5 µM (inactive). In addition, the GI50 in the assay on MOLT-4 is 2.97 µM (inactive); in the assay on Malme-3M it was 6.14 µM (inactive); in the assay with OVCAR-4 it was 14.6 µM (inactive); in the assay with OVCAR-8, 4.79 µM (inactive); in the assay on SF-539, 15.9 µM (inactive); with SK-OV-3, 33.4 µM (inactive). Besides, the GI50 was 3.65 µM (inactive) in the assay on SW-620 and 11.1 µM (inactive) with UACC-257.

Regarding `N#CC(OC1OC(COC2OC(CO)C(O)C(O)C2O)C(O)C(O)C1O)c1ccccc1` (stereo unspecified), the GI50 with A498, in the assay with DMS-114, with DMS-273, with HOP-62, in the assay with KM12 and in the assay on LOX IMVI was > 225 µM (inactive) each time. Also, the GI50 with MOLT-4, in the assay with Malme-3M, in the assay on OVCAR-4, in the assay with OVCAR-8, in the assay with SF-539 and with SK-OV-3 was > 225 µM (inactive) in each case. Moreover, the GI50 in the assay with SW-620 and in the assay with UACC-257 was > 225 µM (inactive) each time.

Turning to `COc1cc2c(cc1OC)C(Cl)C(c1ccc(Cl)cc1)=C2Cl` (stereo unspecified), the GI50 is 18.6 µM (inactive) with A498; 11.9 µM (inactive) in the assay on DMS-114; 17.7 µM (inactive) with DMS-273; 12.1 µM (inactive) with LOX IMVI; 6.73 µM (inactive) with MOLT-4; 22 µM (inactive) with Malme-3M. The GI50 was 19.3 µM (inactive) in the assay with OVCAR-8; 17.1 µM (inactive) with SF-539; 28.5 µM (inactive) with SK-OV-3; 18.7 µM (inactive) with SW-620; 19.6 µM (inactive) in the assay with TK-10.

`CCCCc1c2c(nc3c1CCCC3=O)CCCC2`: the GI50 in the assay with DMS-114, with DMS-273, in the assay with HOP-62, with KM12, in the assay with LOX IMVI and in the assay on MOLT-4 was > 100 µM (inactive) throughout. In addition, the GI50 in the assay on Malme-3M is 50.2 µM (inactive); in the assay on OVCAR-8 it was > 100 µM (inactive); in the assay with SF-539 it was > 100 µM (inactive); in the assay on SK-OV-3, > 100 µM (inactive); in the assay with SR, 41.4 µM (inactive); in the assay with SW-620, > 100 µM (inactive). For the same molecule, in the assay with UACC-257, the GI50 is > 10 µM (inactive).

On to `Cc1cc(NS(=O)(=O)c2ccc(NC(=O)c3cccc4cc5ccccc5nc34)cc2)no1`, for which the GI50 with A498 was 16.7 µM (inactive); in the assay with DMS-114, 18.3 µM (inactive); in the assay on DMS-273 it was 13.8 µM (inactive); in the assay on HOP-62, 27.6 µM (inactive); with KM12, 16.4 µM (inactive); in the assay on LOX IMVI it was > 10 µM (inactive). The GI50 in the assay on MOLT-4 was 17.1 µM (inactive); with Malme-3M, 14.8 µM (inactive); in the assay with OVCAR-4, 18.3 µM (inactive); in the assay on OVCAR-8, 16.6 µM (inactive); in the assay with SF-539, 11.6 µM (inactive); with SK-OV-3, 39.6 µM (inactive). Moreover, the GI50 was 25.3 µM (inactive) in the assay on SW-620, 35.9 µM (inactive) with TK-10 and 27.4 µM (inactive) in the assay with UACC-257.

With `COC(=O)C12CC(c3ccccc31)C1C(=O)OC(=O)C12` (stereo unspecified), the GI50 in the assay with DMS-114, in the assay on DMS-273, in the assay on HOP-62, in the assay on KM12, with LOX IMVI and in the assay with MOLT-4 was > 100 µM (inactive) each time. Further, the GI50 in the assay with Malme-3M, in the assay on OVCAR-4, in the assay on OVCAR-8, in the assay with SF-539, in the assay on SW-620 and in the assay with TK-10 was > 100 µM (inactive) each time. In the assay with UACC-257, the GI50 is > 100 µM (inactive).

For `CC(O)/C=C/C(CCC(C)CO)C(C)C` (stereo unspecified), the GI50 in the assay on A498, with DMS-114, in the assay on DMS-273, in the assay on HOP-62, in the assay on KM12 and with LOX IMVI was > 100 µM (inactive) throughout. The GI50 in the assay with MOLT-4, with Malme-3M, in the assay on OVCAR-4, with OVCAR-8, in the assay on SF-539 and with SK-OV-3 was > 100 µM (inactive) in each case. The GI50 in the assay with SW-620, with TK-10 and with UACC-257 was > 100 µM (inactive) each time.

In the case of `O=C1c2ccccc2CC1C1(O)C(=O)Nc2c(Cl)cc(Cl)cc21` (stereo unspecified), the GI50 in the assay with DMS-114 is 21.9 µM (inactive); with DMS-273, 68.4 µM (inactive); in the assay with HOP-62 it was 99.5 µM (inactive); in the assay on KM12 it was 47.2 µM (inactive); with LOX IMVI it was 61.8 µM (inactive); with MOLT-4, 30.5 µM (inactive). In addition, the GI50 was 79.6 µM (inactive) in the assay on Malme-3M; 92.5 µM (inactive) in the assay on OVCAR-4; 39.4 µM (inactive) in the assay on OVCAR-8; > 100 µM (inactive) in the assay with SK-OV-3; 35.2 µM (inactive) with SW-620; > 100 µM (inactive) with TK-10. Besides, in the assay with UACC-257, the GI50 was 27 µM (inactive).

As for `Cc1ccccc1NC(=O)CSc1nnc(-c2ccc(/N=C\c3ccc(Cl)cc3)cc2)o1`, the GI50 with DMS-114, with DMS-273, in the assay on HOP-62, in the assay on KM12, with LOX IMVI and in the assay on MOLT-4 was > 100 µM (inactive) in each case. The GI50 in the assay on Malme-3M, in the assay on OVCAR-4, with OVCAR-8, with SK-OV-3, in the assay on SR and with SW-620 was > 100 µM (inactive) in each case. The GI50 in the assay on TK-10 and in the assay with UACC-257 was > 100 µM (inactive) in each case.

For `C=C1CC(OC)(C(O)C(=O)N[C@H]2OCO[C@H]3C2O[C@H](C[C@H](O)COC)C(C)(C)C3OC)O[C@H](C)[C@@H]1C` (stereo partly specified), the GI50 in the assay with A498, in the assay on DMS-114, in the assay with DMS-273, in the assay with HOP-62, in the assay with KM12 and in the assay on LOX IMVI was < 0.00773 µM (active) throughout. Also, the GI50 in the assay with MOLT-4, in the assay with OVCAR-4, in the assay with OVCAR-8, in the assay on SF-539, with SW-620 and in the assay on UACC-257 was < 0.00773 µM (active) each time.

Turning to `CSCC[C@@H](NC(=O)[C@H](CC(C)C)NC(=O)C(Cc1cnc[nH]1)NC(=O)CNC(=O)[C@@H](NC(=O)[C@H](C)NC(=O)[C@H](Cc1c[nH]c2ccccc12)NC(=O)[C@H](CCC(N)=O)NC(=O)[C@@H](N)CC(N)=O)C(C)C)C(N)=O` (stereo partly specified), the GI50 with A498 was > 100 µM (inactive); with DMS-114 it was > 100 µM (inactive); with DMS-273 it was > 100 µM (inactive); with HOP-62 it was > 100 µM (inactive); in the assay on KM12 it was > 100 µM (inactive); in the assay with LOX IMVI it was 99.8 µM (inactive). Also, the GI50 in the assay with MOLT-4 is > 55.7 µM (inactive); in the assay with Malme-3M it was > 100 µM (inactive); in the assay on OVCAR-4, > 100 µM (inactive); with OVCAR-8, > 100 µM (inactive); in the assay with SF-539 it was > 100 µM (inactive); in the assay on SK-OV-3, > 100 µM (inactive). Further, the figures for the GI50 in the assay with SW-620 and in the assay on UACC-257 were > 100 µM (inactive) and > 88.7 µM (inactive), respectively.

On to `Cn1c(=O)nc2n(-c3ccc(Br)cc3)c3ccccc3nc-2c1=O`, for which the GI50 with A498 is 11.2 µM (inactive); with DMS-114, 2 µM (inactive); with DMS-273, 1.88 µM (inactive); in the assay with HOP-62, 13.6 µM (inactive); in the assay on KM12, 8.83 µM (inactive); in the assay on MOLT-4, 6.25 µM (inactive). Further, the GI50 in the assay with Malme-3M was 3.61 µM (inactive); in the assay on OVCAR-4, 3.51 µM (inactive); in the assay with OVCAR-8 it was 3.38 µM (inactive); in the assay on SF-539 it was 5.85 µM (inactive); in the assay with SK-OV-3 it was 27.8 µM (inactive); in the assay with SW-620, 2.06 µM (inactive). Besides, the GI50 in the assay on TK-10 is 8.93 µM (inactive); in the assay with UACC-257, 2.69 µM (inactive).

With `Cc1c(-c2ccc(-c3ccccc3F)cc2)nc2ccc(F)cc2c1C(=O)O` [BREQUINAR SODIUM], the GI50 is 49.8 µM (inactive) with A498; 0.193 µM (active) in the assay on DMS-273; 0.262 µM (active) in the assay on DU-145; 1.1 µM (active) in the assay on HOP-62; 6.93 µM (inactive) with Hs-578T; 0.211 µM (active) in the assay on KM12. The GI50 was 0.0931 µM (active) in the assay with LOX IMVI; 0.0887 µM (active) with MOLT-4; 15.4 µM (inactive) with Malme-3M; 2.73 µM (inactive) with OVCAR-4; 0.325 µM (active) with OVCAR-8; 0.5 µM (active) with PC-3. The GI50 in the assay on SF-539 is 0.346 µM (active); in the assay with SK-OV-3, 16.1 µM (inactive); with SR it was 0.427 µM (active); in the assay on SW-620, 0.384 µM (active); in the assay on T47D, 16.9 µM (inactive); with TK-10 it was 16.3 µM (inactive). Besides, the GI50 in the assay on UACC-257 is 12.5 µM (inactive).
